Data: the OligoGym collection
Strand notation (5' to 3'): a small letter for the sugar, then the base; units joined by * are phosphorothioate-linked, units joined directly phosphodiester-linked; [ ] holds rarer units or linkages, { } end groups; capitals alone tell only the bases. d = 2'-deoxy (DNA); m = 2'-O-methyl

Experiments:
LINC-PINT [1] = experiment: HEK293-TLR7, 100 nM ASO, then resiquimod
LINC-PINT [2] = experiment: HEK293-TLR8, 100 nM ASO, then resiquimod
EGFR [3] = experiment: HEK293-TLR7, 100 nM ASO, then resiquimod
EGFR [4] = experiment: HEK293-TLR8, 100 nM ASO, then resiquimod

Row | Substance | TLR7 signal (NF-kB luciferase) (% of resiquimod alone) (LINC-PINT [1]) | TLR8 potentiation (NF-kB luciferase) (fold of resiquimod alone) (LINC-PINT [2]) | TLR7 signal (NF-kB luciferase) (% of resiquimod alone) (EGFR [3]) | TLR8 potentiation (NF-kB luciferase) (fold of resiquimod alone) (EGFR [4])
1 | mC*mA*mC*mC*mC*dT*dT*dC*dT*dC*dT*dC*dT*dG*dG*mU*mC*mC*mC*mA | 73.3 | 1.85 | – | –
2 | mG*mU*mC*mU*mC*dC*dT*dC*dC*dA*dC*dA*dC*dC*dC*mU*mU*mC*mU*mC | 25 | 1.98 | – | –
3 | mU*mG*mC*mU*mA*dT*dT*dC*dA*dT*dA*dT*dT*dT*dT*mU*mA*mU*mU*mU | 42.4 | 3.01 | – | –
4 | mU*mC*mU*mC*mU*dG*dG*dT*dC*dC*dC*dA*dT*dC*dC*mC*mU*mU*mC*mU | 78.2 | 5.44 | – | –
5 | mG*mA*mU*mG*mG*dT*dT*dC*dC*dA*dG*dT*dC*dC*dC*mU*mC*mU*mU*mC | 22.3 | 0.84 | – | –
6 | mU*mG*mA*mC*mA*dA*dA*dA*dC*dA*dA*dT*dA*dA*dT*mA*mA*mC*mA*mG | 36.7 | 1.31 | – | –
7 | mA*mA*mA*mA*mG*dT*dG*dG*dG*dA*dA*dA*dT*dA*dA*mA*mG*mG*mU*mU | 30.9 | 1.48 | – | –
8 | mG*mU*mU*mC*mA*dG*dT*dC*dA*dG*dA*dT*dC*dG*dC*mU*mG*mG*mG*mA | 17.5 | 1.55 | – | –
9 | mC*mC*mC*mU*mA*dA*dT*dG*dC*dT*dT*dT*dC*dC*dT*mC*mU*mC*mC*mA | 58.4 | 2.7 | – | –
10 | mU*mU*mC*mU*mC*dT*dC*dT*dG*dG*dT*dC*dC*dC*dA*mU*mC*mC*mC*mU | 26.2 | 2.83 | – | –
11 | mG*mU*mC*mC*mC*dA*dT*dC*dC*dC*dT*dT*dC*dT*dG*mC*mU*mG*mC*mC | 22.5 | 1.37 | – | –
12 | mU*mU*mU*mA*mU*dA*dT*dT*dA*dC*dA*dA*dA*dG*dC*mU*mA*mC*mU*mU | 33.7 | 2.71 | – | –
13 | mG*mG*mU*mC*mC*dC*dA*dT*dC*dC*dC*dT*dT*dC*dT*mG*mC*mU*mG*mC | 20.8 | 1.28 | – | –
14 | mC*mC*mU*mA*mU*dT*dA*dA*dA*dA*dA*dA*dA*dT*dT*mU*mA*mU*mA*mC | 109 | 2.19 | – | –
15 | mG*mU*mC*mC*mG*dT*dA*dC*dC*dT*dC*dC*dA*dC*dC*mC*mA*mC*mC*mG | 22.8 | 1.7 | – | –
16 | mG*mC*mG*mU*mA*dG*dT*dT*dT*dC*dT*dC*dT*dT*dC*mC*mU*mC*mC*mC | 27.2 | 1.86 | – | –
17 | mA*mG*mC*mC*mG*dA*dA*dC*dA*dG*dA*dA*dG*dG*dA*mG*mC*mG*mU*mC | 27.7 | 2.54 | – | –
18 | mU*mA*mU*mU*mC*dA*dT*dA*dT*dT*dT*dT*dT*dA*dT*mU*mU*mC*mA*mG | 87.1 | 4.47 | – | –
19 | mA*mA*mA*mA*mA*dG*dT*dG*dG*dG*dA*dA*dA*dT*dA*mA*mA*mG*mG*mU | 28.8 | 1.34 | – | –
20 | mC*mA*mC*mU*mG*dT*dA*dT*dT*dT*dT*dA*dT*dT*dA*mC*mA*mG*mA*mA | 58.1 | 2.67 | – | –
21 | mU*mG*mG*mC*mG*dT*dA*dG*dT*dT*dT*dC*dT*dC*dT*mU*mC*mC*mU*mC | 32.8 | 2.48 | – | –
22 | mU*mC*mC*mC*mA*dT*dC*dC*dC*dT*dT*dC*dT*dG*dC*mU*mG*mC*mC*mA | 43.1 | 3.95 | – | –
23 | mC*mU*mC*mU*mC*dT*dG*dG*dT*dC*dC*dC*dA*dT*dC*mC*mC*mU*mU*mC | 85 | 2.73 | – | –
24 | mU*mG*mA*mC*mA*dT*dT*dT*dC*dG*dT*dG*dG*dC*dT*mC*mC*mU*mA*mC | 33.6 | 1.73 | – | –
25 | mA*mG*mU*mU*mU*dA*dT*dA*dG*dA*dT*dT*dT*dC*dA*mA*mG*mU*mA*mG | 37.6 | 3.06 | – | –
26 | mU*mU*mU*mG*mA*dA*dG*dT*dG*dA*dA*dG*dT*dA*dA*mA*mA*mG*mG*mA | – | – | 35.2 | 2.58
27 | mU*mU*mU*mU*mU*dG*dA*dA*dG*dT*dG*dT*dT*dT*dA*mA*mU*mA*mU*mU | – | – | 59 | 3.43
28 | mA*mA*mA*mG*mU*dC*dA*dA*dA*dA*dA*dG*dA*dA*dA*mA*mA*mC*mU*mG | 45.6 | 1.62 | – | –

Row | Substance | TLR7 signal (NF-kB luciferase) (% of resiquimod alone) (LINC-PINT [1]) | TLR8 potentiation (NF-kB luciferase) (fold of resiquimod alone) (LINC-PINT [2]) | TLR7 signal (NF-kB luciferase) (% of resiquimod alone) (EGFR [3]) | TLR8 potentiation (NF-kB luciferase) (fold of resiquimod alone) (EGFR [4])
29 | mC*mC*mA*mU*mC*dC*dC*dT*dT*dC*dT*dG*dC*dT*dG*mC*mC*mA*mA*mG | 52.6 | 2.38 | – | –
30 | mU*mC*mC*mC*mA*dA*dC*dT*dC*dT*dT*dC*dT*dA*dA*mC*mU*mC*mG*mU | 40.8 | 3.7 | – | –
31 | mU*mG*mA*mU*mG*dA*dT*dG*dC*dT*dT*dG*dC*dA*dG*mG*mA*mG*mG*mC | 25.5 | 1.18 | – | –
32 | mG*mC*mA*mA*mG*dG*dC*dC*dC*dT*dT*dC*dG*dC*dA*mC*mU*mU*mC*mU | – | – | 33 | 2.55
33 | mU*mC*mU*mC*mU*dC*dT*dG*dG*dT*dC*dC*dC*dA*dT*mC*mC*mC*mU*mU | 43.8 | 3.68 | – | –
34 | mA*mA*mA*mA*mG*dG*dA*dG*dA*dA*dA*dA*dC*dT*dA*mU*mC*mU*mU*mC | – | – | 47.6 | 1.65
35 | mA*mC*mC*mC*mU*dT*dC*dT*dC*dT*dC*dT*dG*dG*dT*mC*mC*mC*mA*mU | 43.4 | 2.55 | – | –
36 | mC*mU*mU*mU*mU*dG*dG*dG*dA*dA*dC*dG*dG*dA*dC*mU*mG*mG*mU*mU | – | – | 53.2 | 1.91
37 | mG*mG*mG*mU*mC*dT*dC*dC*dT*dC*dC*dA*dC*dA*dC*mC*mC*mU*mU*mC | 21.5 | 0.87 | – | –
38 | mG*mU*mG*mU*mC*dC*dT*dT*dG*dC*dA*dC*dG*dT*dG*mG*mC*mU*mU*mC | – | – | 28.3 | 0.8
39 | mA*mU*mG*mA*mC*dA*dT*dT*dT*dC*dG*dT*dG*dG*dC*mU*mC*mC*mU*mA | 32.5 | 0.88 | – | –
40 | mG*mG*mU*mC*mU*dC*dC*dT*dC*dC*dA*dC*dA*dC*dC*mC*mU*mU*mC*mU | 23.7 | 1.29 | – | –
41 | mC*mC*mU*mU*mC*dT*dG*dC*dT*dG*dC*dC*dA*dA*dG*mC*mC*mC*mC*mA | 85.6 | 1.45 | – | –
42 | mA*mA*mA*mU*mG*dT*dC*dC*dT*dG*dG*dC*dC*dC*dT*mC*mA*mC*mU*mG | 46.5 | 1.45 | – | –
43 | mG*mG*mG*mA*mC*dA*dC*dT*dT*dC*dT*dT*dC*dA*dC*mG*mC*mA*mG*mG | – | – | 52.1 | 1.24
44 | mU*mC*mU*mG*mG*dT*dC*dC*dC*dA*dT*dC*dC*dC*dT*mU*mC*mU*mG*mC | 29.4 | 3.36 | – | –
45 | mC*mA*mU*mC*mC*dC*dT*dT*dC*dT*dG*dC*dT*dG*dC*mC*mA*mA*mG*mC | 54.3 | 2.95 | – | –
46 | mC*mC*mU*mU*mC*dT*dC*dT*dC*dT*dG*dG*dT*dC*dC*mC*mA*mU*mC*mC | 60.9 | 3.01 | – | –
47 | mG*mU*mA*mA*mA*dA*dA*dG*dC*dT*dT*dT*dT*dG*dA*mA*mG*mU*mG*mA | – | – | 29.1 | 1.62
48 | mU*mU*mG*mG*mC*dC*dT*dG*dT*dG*dG*dA*dT*dG*dC*mU*mU*mU*mG*mU | 21.4 | 0.75 | – | –
49 | mC*mA*mA*mG*mC*dC*dC*dC*dA*dG*dC*dG*dT*dT*dC*mC*mU*mC*mC*mG | 45.2 | 2.74 | – | –
50 | mU*mG*mU*mU*mU*dC*dC*dC*dC*dG*dG*dA*dG*dA*dG*mC*mA*mA*mU*mG | 30.9 | 1.62 | – | –
51 | mU*mU*mG*mA*mA*dG*dT*dG*dA*dA*dG*dT*dA*dA*dA*mA*mG*mG*mA*mG | – | – | 31.8 | 0.96
52 | mU*mC*mG*mG*mC*dA*dT*dC*dC*dA*dC*dC*dA*dC*dG*mU*mC*mG*mU*mC | – | – | 53.7 | 1.39
53 | mU*mG*mU*mC*mC*dT*dT*dG*dC*dA*dC*dG*dT*dG*dG*mC*mU*mU*mC*mG | – | – | 62.7 | 2.61
54 | mC*mU*mG*mU*mG*dA*dT*dC*dT*dT*dG*dA*dC*dA*dT*mG*mC*mU*mG*mC | – | – | 53.3 | 3.44
55 | mU*mU*mU*mU*mG*dA*dA*dG*dT*dG*dT*dT*dT*dA*dA*mU*mA*mU*mU*mC | – | – | 78.9 | 4.09
